Results from paper PMC5224880, “Discovery and Molecular Basis of a Diverse Set of Polycomb Repressive Complex 2 Inhibitors Recognition by EED” (PLoS ONE, 2017).

What was measured:
Format in all cases: biochemical
Dot1L = Dot1L (Homo sapiens, UniProt Q8TEK3); test: HMT panel selectivity: Dot1L
Method: (§1) Note: for EZH2, EZH2/EED/SUZ12/RBAP48/AEBP2 was used in the assay; for EZH1, EZH1/EED/SUZ12/RBAP48/AEBP2 was used in the assay; for MLL, MLL/WDR5/RBBP5/ASH2L/ was use in the assay. a, H3K27me0 peptide was used as substrate for both EZH2 and EZH1 activity; b, H3K27me1 peptide was used as substrate for both EZH2 and EZH1 activity. All HMT reactions were performed as described previously. ref: Proc Natl Acad Sci U S A. 2012 Dec 26;109(52):21360-5.

Set7/9 = target: T1, Set7/9 (Homo sapiens, UniProt Q8WTS6); test: HMT panel selectivity: Set7/9
T1 sequence (Q8WTS6 1-366): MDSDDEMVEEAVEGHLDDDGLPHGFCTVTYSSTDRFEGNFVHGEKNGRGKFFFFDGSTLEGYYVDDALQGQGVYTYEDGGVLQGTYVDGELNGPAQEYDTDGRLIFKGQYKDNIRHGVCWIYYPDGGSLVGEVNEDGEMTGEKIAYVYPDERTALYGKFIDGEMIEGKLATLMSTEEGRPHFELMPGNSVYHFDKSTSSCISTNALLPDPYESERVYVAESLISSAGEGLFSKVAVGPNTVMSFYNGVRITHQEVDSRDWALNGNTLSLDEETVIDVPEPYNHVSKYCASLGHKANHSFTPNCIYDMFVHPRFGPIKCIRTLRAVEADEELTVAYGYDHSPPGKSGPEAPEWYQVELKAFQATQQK
Method: as §1

DNMT1 = DNMT1 (Homo sapiens, UniProt P26358); test: HMT panel selectivity: DNMT1
Chain of DNMT1 (P26358 whole entry, species assumed): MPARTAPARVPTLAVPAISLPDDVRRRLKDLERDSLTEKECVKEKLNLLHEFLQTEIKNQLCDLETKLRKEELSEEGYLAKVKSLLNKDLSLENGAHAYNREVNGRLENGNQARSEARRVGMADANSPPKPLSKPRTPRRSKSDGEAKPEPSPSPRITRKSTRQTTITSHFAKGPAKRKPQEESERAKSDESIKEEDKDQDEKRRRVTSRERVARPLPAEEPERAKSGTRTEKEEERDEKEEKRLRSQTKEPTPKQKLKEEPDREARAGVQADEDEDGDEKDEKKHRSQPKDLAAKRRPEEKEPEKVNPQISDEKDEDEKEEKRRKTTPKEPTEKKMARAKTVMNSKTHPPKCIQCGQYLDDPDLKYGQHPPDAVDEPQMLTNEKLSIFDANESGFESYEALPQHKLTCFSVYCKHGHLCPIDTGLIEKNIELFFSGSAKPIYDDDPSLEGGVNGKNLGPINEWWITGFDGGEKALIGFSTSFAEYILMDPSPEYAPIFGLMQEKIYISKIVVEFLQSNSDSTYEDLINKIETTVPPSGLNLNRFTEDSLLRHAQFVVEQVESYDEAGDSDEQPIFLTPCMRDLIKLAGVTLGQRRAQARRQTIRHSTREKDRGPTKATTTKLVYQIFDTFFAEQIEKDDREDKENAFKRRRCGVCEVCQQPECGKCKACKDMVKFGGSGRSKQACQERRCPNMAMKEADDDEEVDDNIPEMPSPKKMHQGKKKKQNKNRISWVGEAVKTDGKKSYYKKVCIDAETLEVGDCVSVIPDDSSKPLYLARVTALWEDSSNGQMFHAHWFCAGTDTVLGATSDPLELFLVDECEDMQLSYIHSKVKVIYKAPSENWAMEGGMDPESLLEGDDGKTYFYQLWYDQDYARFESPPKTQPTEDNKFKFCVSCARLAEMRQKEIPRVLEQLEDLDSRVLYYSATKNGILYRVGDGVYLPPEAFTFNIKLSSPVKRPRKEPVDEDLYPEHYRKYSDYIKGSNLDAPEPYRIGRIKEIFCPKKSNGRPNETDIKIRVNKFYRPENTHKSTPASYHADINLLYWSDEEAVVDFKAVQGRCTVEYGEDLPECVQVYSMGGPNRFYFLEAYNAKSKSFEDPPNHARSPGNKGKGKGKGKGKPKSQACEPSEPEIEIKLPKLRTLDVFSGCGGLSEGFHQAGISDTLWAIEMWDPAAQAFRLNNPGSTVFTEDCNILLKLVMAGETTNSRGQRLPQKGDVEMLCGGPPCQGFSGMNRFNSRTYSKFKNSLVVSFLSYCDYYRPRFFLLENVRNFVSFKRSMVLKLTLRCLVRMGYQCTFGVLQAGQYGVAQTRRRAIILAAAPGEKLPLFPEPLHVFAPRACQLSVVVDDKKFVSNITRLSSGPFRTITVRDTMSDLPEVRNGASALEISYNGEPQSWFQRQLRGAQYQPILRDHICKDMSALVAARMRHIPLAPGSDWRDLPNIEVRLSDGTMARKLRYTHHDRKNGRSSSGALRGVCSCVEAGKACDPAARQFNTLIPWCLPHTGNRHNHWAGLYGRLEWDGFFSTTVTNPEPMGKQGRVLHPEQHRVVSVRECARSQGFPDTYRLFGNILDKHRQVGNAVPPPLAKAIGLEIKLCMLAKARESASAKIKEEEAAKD
Method: as §1

NSD3 = target: T2, NSD3 (Homo sapiens, UniProt Q9BZ95); test: HMT panel selectivity: NSD3
T2 sequence (Q9BZ95 1-1437): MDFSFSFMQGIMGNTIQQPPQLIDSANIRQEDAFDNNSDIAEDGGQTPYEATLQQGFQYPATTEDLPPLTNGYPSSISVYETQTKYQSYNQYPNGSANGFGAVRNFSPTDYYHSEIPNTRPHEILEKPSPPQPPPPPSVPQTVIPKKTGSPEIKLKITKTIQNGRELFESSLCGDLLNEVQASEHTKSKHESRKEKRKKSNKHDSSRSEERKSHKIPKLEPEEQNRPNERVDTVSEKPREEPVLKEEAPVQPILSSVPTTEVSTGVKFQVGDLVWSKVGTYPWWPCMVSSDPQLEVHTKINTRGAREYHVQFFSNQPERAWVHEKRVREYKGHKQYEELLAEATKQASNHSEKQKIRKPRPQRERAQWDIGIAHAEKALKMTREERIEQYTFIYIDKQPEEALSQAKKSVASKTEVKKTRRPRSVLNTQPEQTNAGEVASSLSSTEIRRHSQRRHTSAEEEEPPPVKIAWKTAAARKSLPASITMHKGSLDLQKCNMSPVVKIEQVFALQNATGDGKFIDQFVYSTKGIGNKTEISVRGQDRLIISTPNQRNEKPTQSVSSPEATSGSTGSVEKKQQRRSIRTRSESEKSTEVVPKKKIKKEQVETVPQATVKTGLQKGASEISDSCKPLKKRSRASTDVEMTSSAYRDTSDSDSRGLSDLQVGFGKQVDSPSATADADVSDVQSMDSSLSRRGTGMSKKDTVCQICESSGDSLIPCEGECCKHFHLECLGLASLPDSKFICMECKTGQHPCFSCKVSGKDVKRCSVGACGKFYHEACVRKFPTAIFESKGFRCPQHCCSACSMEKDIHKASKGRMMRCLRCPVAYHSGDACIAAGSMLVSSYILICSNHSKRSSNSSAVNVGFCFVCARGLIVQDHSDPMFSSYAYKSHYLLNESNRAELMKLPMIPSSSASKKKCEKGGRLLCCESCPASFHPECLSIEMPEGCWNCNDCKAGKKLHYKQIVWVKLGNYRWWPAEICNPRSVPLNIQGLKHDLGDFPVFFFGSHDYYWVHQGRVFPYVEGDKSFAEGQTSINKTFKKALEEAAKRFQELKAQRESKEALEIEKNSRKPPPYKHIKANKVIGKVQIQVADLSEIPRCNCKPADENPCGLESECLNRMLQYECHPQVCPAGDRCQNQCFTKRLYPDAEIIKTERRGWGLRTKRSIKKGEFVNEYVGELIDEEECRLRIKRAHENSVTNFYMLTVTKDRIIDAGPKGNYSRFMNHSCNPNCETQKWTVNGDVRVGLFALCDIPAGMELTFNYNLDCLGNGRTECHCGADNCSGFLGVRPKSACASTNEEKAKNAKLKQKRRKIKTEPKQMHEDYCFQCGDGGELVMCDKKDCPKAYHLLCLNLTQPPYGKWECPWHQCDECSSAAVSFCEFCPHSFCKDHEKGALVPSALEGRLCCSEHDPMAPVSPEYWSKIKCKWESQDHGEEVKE
Method: as §1

PRMT3 = PRMT3 (Homo sapiens, UniProt O60678); test: HMT panel selectivity: PRMT3
Chain of PRMT3 (O60678 whole entry, species assumed): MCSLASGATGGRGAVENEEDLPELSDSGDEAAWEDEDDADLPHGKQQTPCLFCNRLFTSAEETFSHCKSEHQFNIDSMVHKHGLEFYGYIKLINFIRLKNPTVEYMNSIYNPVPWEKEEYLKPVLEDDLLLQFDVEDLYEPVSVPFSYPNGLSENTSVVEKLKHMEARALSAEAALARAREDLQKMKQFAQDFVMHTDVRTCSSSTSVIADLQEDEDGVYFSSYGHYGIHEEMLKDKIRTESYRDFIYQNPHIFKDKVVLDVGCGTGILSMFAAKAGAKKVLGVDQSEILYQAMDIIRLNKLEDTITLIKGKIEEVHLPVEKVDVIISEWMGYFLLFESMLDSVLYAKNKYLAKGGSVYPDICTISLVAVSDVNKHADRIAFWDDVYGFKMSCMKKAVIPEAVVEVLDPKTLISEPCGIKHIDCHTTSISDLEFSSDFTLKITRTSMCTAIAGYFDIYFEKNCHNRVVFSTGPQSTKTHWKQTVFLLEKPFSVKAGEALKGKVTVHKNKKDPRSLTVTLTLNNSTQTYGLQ
Method: as §1

[1] = target: MLL (MLL/WDR5/RBBP5/ASH2L) (Homo sapiens, UniProt Q03164); test: HMT panel selectivity: MLL
Method: as §1

[2] = target: EZH1 (EZH1/EED/SUZ12/RBAP48/AEBP2) (Homo sapiens, UniProt O75530+Q92800); test: HMT panel selectivity: EZH1
From the text: as §1, with “activity.” for “activity. All HMT reactions were performed as described previously. ref: Proc Natl Acad Sci U S A. 2012 Dec 26;109(52):21360-5.”

Chain of Dot1L (Q8TEK3 whole entry, species assumed): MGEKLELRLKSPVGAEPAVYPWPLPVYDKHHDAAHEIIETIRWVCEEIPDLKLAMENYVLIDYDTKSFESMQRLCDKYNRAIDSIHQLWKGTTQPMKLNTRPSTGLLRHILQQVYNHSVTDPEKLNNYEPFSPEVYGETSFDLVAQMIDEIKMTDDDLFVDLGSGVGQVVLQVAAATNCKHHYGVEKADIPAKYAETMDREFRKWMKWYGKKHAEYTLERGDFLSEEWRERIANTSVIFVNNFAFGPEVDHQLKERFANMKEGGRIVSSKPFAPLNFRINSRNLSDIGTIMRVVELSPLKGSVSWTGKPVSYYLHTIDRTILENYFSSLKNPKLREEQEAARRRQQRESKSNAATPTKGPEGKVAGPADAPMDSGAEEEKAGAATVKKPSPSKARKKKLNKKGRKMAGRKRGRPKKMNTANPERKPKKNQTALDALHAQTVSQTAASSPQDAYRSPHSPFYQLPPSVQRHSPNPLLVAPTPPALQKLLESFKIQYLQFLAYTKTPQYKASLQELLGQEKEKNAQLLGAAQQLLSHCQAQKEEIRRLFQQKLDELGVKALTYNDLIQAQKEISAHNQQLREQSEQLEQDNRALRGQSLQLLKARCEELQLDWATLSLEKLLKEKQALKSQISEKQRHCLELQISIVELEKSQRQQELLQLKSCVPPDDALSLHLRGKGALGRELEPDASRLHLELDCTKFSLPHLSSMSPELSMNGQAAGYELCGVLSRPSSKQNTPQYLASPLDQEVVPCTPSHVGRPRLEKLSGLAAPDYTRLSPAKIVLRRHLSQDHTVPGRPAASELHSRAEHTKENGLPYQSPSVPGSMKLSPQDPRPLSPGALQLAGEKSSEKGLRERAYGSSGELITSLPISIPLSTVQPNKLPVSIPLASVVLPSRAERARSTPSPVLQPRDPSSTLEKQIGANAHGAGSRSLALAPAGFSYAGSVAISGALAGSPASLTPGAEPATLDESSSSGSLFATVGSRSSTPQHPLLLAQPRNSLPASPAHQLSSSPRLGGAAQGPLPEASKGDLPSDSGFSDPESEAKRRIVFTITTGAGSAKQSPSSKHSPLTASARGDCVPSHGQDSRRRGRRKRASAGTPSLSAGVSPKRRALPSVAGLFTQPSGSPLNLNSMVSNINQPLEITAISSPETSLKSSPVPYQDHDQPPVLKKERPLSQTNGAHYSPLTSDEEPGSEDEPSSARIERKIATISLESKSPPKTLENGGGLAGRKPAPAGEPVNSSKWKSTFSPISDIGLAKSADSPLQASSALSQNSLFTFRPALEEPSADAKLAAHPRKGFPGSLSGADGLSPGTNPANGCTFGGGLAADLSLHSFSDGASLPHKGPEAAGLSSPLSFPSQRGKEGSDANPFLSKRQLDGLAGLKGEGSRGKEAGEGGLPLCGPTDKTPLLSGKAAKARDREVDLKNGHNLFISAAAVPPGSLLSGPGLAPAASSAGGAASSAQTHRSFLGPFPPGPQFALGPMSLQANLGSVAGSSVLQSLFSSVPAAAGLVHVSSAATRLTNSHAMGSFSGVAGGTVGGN

Structure (SMILES)	IC50 (Dot1L) [µM]	IC50 (Set7/9) [µM]	IC50 (DNMT1) [µM]	IC50 (NSD3) [µM]	IC50 (PRMT3) [µM]	IC50 [1] [µM]	IC50 [2] [µM]
COc1cccc(CC2CC3Cc4c(cccc4OC)CC3N(C)C2)c1 (stereo not drawn) [EED210]	> 100	> 100	> 100	> 100	> 100	> 100	–
N#Cc1c2c(c3nncn3c1NCc1ccco1)CN(Cc1ccccc1)CC2 [EED162]	> 100	> 100	> 100	> 100	> 100	> 100	5.1
COc1cc(-c2cc3n(c(=N)c2C#N)CCc2cc4c(cc2-3)OCO4)ccc1OC(C)C [EED396]	> 100	> 100	> 100	> 100	> 100	> 100	70

Now from value to compound:

IC50 (Dot1L) [µM]	IC50 (Set7/9) [µM]	IC50 (DNMT1) [µM]	IC50 (NSD3) [µM]	IC50 (PRMT3) [µM]	IC50 [1] [µM]	IC50 [2] [µM]	Structure (SMILES)
> 100	> 100	> 100	> 100	> 100	> 100	66	Cc1cc(C)n(-c2cc(N3CCc4ccccc4C3)ccc2[N+](=O)[O-])n1 [EED666]
> 100	> 100	> 100	> 100	> 100	> 100	–	COc1ccccc1CN1CC(c2cn(C)c3ccccc23)C(N(C)C)C1 (stereo not drawn) [EED709]
